Assay results taken from patent US8188270B2, “Polymorphous form of 5-chloro-N-({(5S)-2-oxo-3[4-(3-oxo-4-morpholinyl)-phenyl]-1,3-oxazolidine-5-yl}-methyl)-2-thiophene carboxamide” (Bayer Schering Pharma Aktiengesellschaft, priority 2005, dated 2012).

Test: Solubility comparison of crystal modifications of the compound of the formula (I)
Type: physicochemical
Conditions: modification II versus known modification (modification I)

solubility in comparison to the known modification: higher solubility
Structure (SMILES): O=C(NC[C@H]1CN(c2ccc(N3CCOCC3=O)cc2)C(=O)O1)c1ccc(Cl)s1 [modification II, 5-chloro-N-({(5S)-2-oxo-3-[4-(3-oxo-4-morpholinyl)-phenyl]-1,3-oxazolidin-5-yl}-methyl)-2-thiophenecarboxamide]
